{
  "source": "patent US10100088B2",
  "about": "“Glycopeptide derivatives for the preservation and protection of biological materials and microorganisms” (TFCHEM, priority 2014, dated 2018)",
  "key": {"[1]": {"test_system": "human neonatal skin fibroblasts (CCD-27SK, ATCC CRL-1475)", "assay": "Starvation (serum deprivation) stress, neutral red uptake viability", "assay_type": "cell-based", "procedure": "Induced stresses were performed as follow: Starvation\n(§1) The neutral red uptake assay was used for the determination of cell viability. This assay is based on the ability of viable cells to incorporate and bind the supravital dye neutral red in its lysosomes. So, only the viable cells are dyed. At different times after the stress assay (T0), the plates were incubated with neutral red solution for 3.5 hours. The cells are subsequently washed, the dye is extracted in each well and the absorbance is read using a spectrophotometer.\n(§2) For sampling, 1 mL of DMEM (without phenol red indicator) with neutral red (OD=0.110) was added to the cells for 3.5 hours (37° C., 10% CO2). After incubation, the medium was removed, two washes of PBS were realized and 1 mL of extraction solution (absolute ethanol 49%, ultrapure water 49%, glacial acetic acid 2%) was added. Plates were placed 15 minutes on rotary shaker in the dark before reading OD at 540 nm.\nThe OD540 nm average value of positive control was considered as 100% of viability.\n(§3) The percentage of viability for each assay was calculated as follow: % viability assay=(OD540 nm of tested solution−blank)*100/(OD540 nm of positive control−blank)."}, "[2]": {"test_system": "human neonatal skin fibroblasts", "details": "for Lysis following bacterial stress at 48 h (OD490 nm): LDH release", "procedure": "The medium was changed every two days by 37° C. preheated fresh medium."}, "[3]": {"assay": "Comparative stability towards basic conditions (NaOD in D2O), 1H NMR", "assay_type": "physicochemical", "procedure": "In a first set of experiments (experiments 1 to 7 in table 9), X (10 mg, 1.72 10^−2 mmol) was reacted with 2 to 8 equivalents of NaOD in a total volume of 355 μL of deuterium oxide ([X]=4.8 10^−2 mmol·mL^−1) during 2 h 30 before being acidified with 1M DCl in D2O. To be sure that all compounds in solution are in their acidic form, the equivalents of DCl are adjusted to 3 more equivalents of DCl than the amount required to neutralize the solution (nDCl=nNaOD+3). The volume was adjusted to 544 μL with deuterium oxide.\nIn a second set of experiments (experiments 8 to 14 in table 9), 17 (10 mg, 1.66 10^−2 mmol) was reacted with 2 to 8 equivalents of NaOD in a total volume of 343 μL of deuterium oxide ([17]=4.8 10^−2 mmol·mL^−1) during 2 h 30 before being acidified with 1M DCl in D2O. To be sure that all compounds in solution are in their acidic form, the equivalents of DCl are adjusted to 3 more equivalents of DCl than the amount required to neutralize the solution (nDCl=nNaOD+3). The volume was adjusted to 526 μL with deuterium oxide.\n^1H NMR analyses were performed on each experiment. It is why experiments were realized in deuterium oxide and using 1M NaOD in D2O as base and 1M DCl in D2O as acid.\n^1H NMR allows indeed the determination of the amount of compound X1 formed, by comparison between the integration corresponding to the methylene group of the lysine side chain connected to the nitrogen atom in X (CH2NGP) (3.3 ppm) and the integrationof the same methylene group in X1 (CH2Lys hydrolyzed) (3.0 ppm).\nTo confirm the structure of compounds X1 and X2, resulting from hydrolysis of X, the following experiment was realized, in which X (10 mg, 1.72 10^−2 mmol) was reacted with 8 equivalents of NaOD in a total volume of 355 μL of deuterium oxide ([X]=4.8 10^−2 mmol·mL^−1) during 3 days before being acidified with 1M DCl in D2O. In these conditions, almost the totality of compound X is hydrolyzed, the percentage of hydrolysis of compound X being 85% as determined by ^1H NMR as evidence in table 11."}, "[4]": {"test_system": "human neonatal skin fibroblasts", "assay": "UV stress (11 J/cm^2), neutral red uptake viability", "assay_type": "cell-based", "procedure": "as §1, §2, §3"}},
  "note": "Like-named read-outs stand apart in the source and are kept apart here.",
  "data": [
    {"smiles": "C[C@H](NC(=O)[C@H](C)NC(=O)[C@@H](N)CCCCNCC(F)(F)C1(O)O[C@H](CO)[C@H](O)[C@H](O)[C@H]1O)C(=O)O.Cl.Cl", "note": "(some centres unmarked) [Compound 17]", "values": [
      {"measurement": "Percentage of viability", "setting": "[1]; D 1 after serum deprivation, 5 mg/mL (Table 2)", "value": 75, "unit": "%"},
      {"measurement": "Percentage of viability", "setting": "[1]; D 1 after serum deprivation, 10 mg/mL (Table 2)", "value": 71, "unit": "%"},
      {"measurement": "Percentage of viability", "setting": "[1]; D 4 after serum deprivation, 5 mg/mL (Table 2)", "value": 54, "unit": "%"},
      {"measurement": "Percentage of viability", "setting": "[1]; D 4 after serum deprivation, 10 mg/mL (Table 2)", "value": 61, "unit": "%"},
      {"measurement": "Percentage of viability", "setting": "[1]; D4 after serum deprivation, 10 mg/mL (Table 4)", "value": 116, "unit": "%"},
      {"measurement": "Percentage of viability", "setting": "[1]; D 7 after serum deprivation, 5 mg/mL (Table 2)", "value": 45, "unit": "%"},
      {"measurement": "Percentage of viability", "setting": "[1]; D 7 after serum deprivation, 10 mg/mL (Table 2)", "value": 55, "unit": "%"},
      {"measurement": "preservative/protective effect on skin fibroblasts (in words)", "setting": "[1]; starvation medium", "value": "significant preservative/protective effect"},
      {"measurement": "Lysis following bacterial stress at 48 h (OD490 nm)", "setting": "[2]; 5 mg/mL", "value": "0.333 ± 0.003", "unit": "OD490 nm"},
      {"measurement": "protective effect against bacterial stress (in words)", "setting": "[2]; 5 mg/ml to 15 mg/ml", "value": "protective effect on cells against bacterial stress"},
      {"measurement": "Lysis following bacterial stress at 48 h (OD490 nm)", "setting": "[2]; 10 mg/mL", "value": "0.293 ± 0.002", "unit": "OD490 nm"},
      {"measurement": "Lysis following bacterial stress at 48 h (OD490 nm)", "setting": "[2]; 15 mg/mL", "value": "0.270 ± 0.005", "unit": "OD490 nm"},
      {"measurement": "% hydrolyzed", "setting": "[3]; 2 eq NaOD, 2 h 30, D2O", "value": 0, "unit": "%"},
      {"measurement": "stability towards basic conditions (in words)", "setting": "[3]; 2 to 8 eq NaOD, 2 h 30, 1H NMR", "value": "absence of degradation"},
      {"measurement": "% hydrolyzed", "setting": "[3]; 3 eq NaOD, 2 h 30, D2O", "value": 0, "unit": "%"},
      {"measurement": "% hydrolyzed", "setting": "[3]; 4 eq NaOD, 2 h 30, D2O", "value": 0, "unit": "%"},
      {"measurement": "% hydrolyzed", "setting": "[3]; 5 eq NaOD, 2 h 30, D2O", "value": 0, "unit": "%"},
      {"measurement": "% hydrolyzed", "setting": "[3]; 6 eq NaOD, 2 h 30, D2O", "value": 0, "unit": "%"},
      {"measurement": "% hydrolyzed", "setting": "[3]; 7 eq NaOD, 2 h 30, D2O", "value": 0, "unit": "%"},
      {"measurement": "% hydrolyzed", "setting": "[3]; 8 eq NaOD, 2 h 30, D2O", "value": 0, "unit": "%"},
      {"measurement": "% hydrolyzed", "setting": "[3]; Control, 0 eq NaOD", "value": 0, "unit": "%"},
      {"measurement": "preservative/protective effect against UV stress (in words)", "setting": "[4]", "value": "preservative/protective effect against UV stress"},
      {"measurement": "Percentage of viability following UV stress (11 J/cm^2)", "setting": "[4]; 1 h after irradiation, 5 mg/mL", "value": 55, "unit": "%"},
      {"measurement": "Percentage of viability following UV stress (11 J/cm^2)", "setting": "[4]; 1 h after irradiation, 10 mg/mL", "value": 53, "unit": "%"},
      {"measurement": "Percentage of viability following UV stress (11 J/cm^2)", "setting": "[4]; 1 h after irradiation, 15 mg/mL", "value": 50, "unit": "%"},
      {"measurement": "Percentage of viability following UV stress (11 J/cm^2)", "setting": "[4]; 3 h after irradiation, 5 mg/mL", "value": 63, "unit": "%"},
      {"measurement": "Percentage of viability following UV stress (11 J/cm^2)", "setting": "[4]; 3 h after irradiation, 10 mg/mL", "value": 46, "unit": "%"},
      {"measurement": "Percentage of viability following UV stress (11 J/cm^2)", "setting": "[4]; 3 h after irradiation, 15 mg/mL", "value": 50, "unit": "%"},
      {"measurement": "Percentage of viability following UV stress (11 J/cm^2)", "setting": "[4]; 24 h after irradiation, 5 mg/mL", "value": 82, "unit": "%"},
      {"measurement": "Percentage of viability following UV stress (11 J/cm^2)", "setting": "[4]; 24 h after irradiation, 10 mg/mL", "value": 94, "unit": "%"},
      {"measurement": "Percentage of viability following UV stress (11 J/cm^2)", "setting": "[4]; 24 h after irradiation, 15 mg/mL", "value": 84, "unit": "%"},
      {"measurement": "growth or regenerative effect on stressed cells (in words)", "setting": "[4]; viability increased in time after UV", "value": "growth or regenerative effect"}
    ]}
  ]
}
